Data set [1] relates to P. gingivalis. The note with it: cited from earlier work.
For data set [2], the system named is Porphyromonas gingivalis 381. In words: Uptake of chlorin e6 conjugates by P. gingivalis cells (fluorescence of cell extract per mg cell protein). Type of data set: cell-based. The note with it: P. gingivalis 10^9 cells/ml, 1 min incubation, at each concentration (1, 5 and 10 μm chlorin e6 equivalent). Here is the method:
Porphyromonas gingivalis 381, a Gram negative bacterium and one of the most common species in dental plaque, was maintained by weekly subculture in Trypticase Soy Agar (TSA) with 1% hemin, 1% vitamin K and 5% sheep blood. For experimental purposes, the organism was grown anaerobically in a chamber with 80% N2, 10% CO2 at 35° C. for 48 h, harvested by centrifugation and resuspended in Trypticase Soy Broth (TSB) with 1% hemin and 1% vitamin K. Cells were dispersed by sonication and repeated passage through Pasteur pipettes. Cell numbers were measured in a spectrophotometer (at wavelength 600 nm, in which an O.D. of 1 yields 10^8 cells/ml) using one ml tubes, to obtain the appropriate number of bacteria for each experiment (10^9 cells/ml for uptake studies and 10^8 cells/ml for irradiation studies). […]
Fluorescence of each cell extract was measured on a spectrofluorimeter (model FluoroMax, SPEX Industries, Edison, N.J.). The excitation wavelength was 400 nm and emission spectra of cell suspensions were recorded from 580 to 700 nm. The protein content of each cell extract was determined by a modified Lowry method (Markwell M. A. et al. Anal. Biochem. 87:206, 1978) using bovine serum albumin dissolved in 0.1 M NaOH/1% SDS as a protein standard to construct calibration curves. Results were expressed as mol chlorin e6 taken up per mg cell protein.

The subject of data set [3] is P. gingivalis. It counts as cell-based, Porphyromonas gingivalis. Here is the method:
In order to establish the effectiveness and selectivity of these conjugates for killing bacteria while sparing mammalian cells, the three conjugates were compared to two widely used clinical photosensitizers, Photofrin II and benzoporphyrin derivative (BPD) (QLT Phototherapeutics Inc., Vancouver, BC). Photosensitizer bulk solid was dissolved in DMSO at 1 mM and diluted in TSB.
Suspensions of P. gingivalis cells (10^8/ml) were incubated in duplicate in the dark at room temperature for 1 min with 5 μm chlorin e6 equivalent of each conjugate, with Photofrin II, and with BPD. Cells were centrifuged, washed once with sterile PBS, and 1 ml fresh TSB was added. In the Example here, the ratios of uptake of chlorin e6 per mg cell protein in P. gingivalis and HCPC-1 cells for the cationic, anionic and neutral conjugates were 46:1, 60:1 and 22:1, respectively.
Bacterial suspensions were added to wells of 12-well plates, and were irradiated in the dark at room temperature using a light emitting diode array which emitted light with wavelengths from 630-710 nm, spanning the absorbance maxima of these photosensitizer compositions. Wells were exposed from below, using fluences from 0 to 25 J/cm^2 at an irradiance of 65 mW/cm^2. Plates were covered during illumination to maintain sterility of the cultures. After illumination of the appropriate wells, serial dilutions of the contents of each well were prepared in TSB, and duplicate 100 μl aliquots were spread on the surfaces of blood agar plates. Survival fractions in each well were calculated by counting the colonies on the plates and dividing by number of colonies from unirradiated controls incubated with photosensitizer in the dark at room temperature for periods equal to irradiation times. Other controls were: bacteria treated neither with photosensitizer nor light, and incubated at room temperature in the dark, and cells exposed to light in the absence of photosensitizer.

The next data set deals with HCPC-1 cells. In words: Phototoxicity to HCPC-1 cells after irradiation, MTT assay. Type of data set: cell-based, hamster. To be noted: 5 μM photosensitizer, light 630-710 nm, MTT 24 h after irradiation. The method, then: HCPC-1 cells, 2×10^4 in aliquots of 100 μl growth medium with 10% FCS, were seeded in 96-well plates and cultured for 24 h until 70% confluent. Six wells from each plate were incubated with 5 μM of each photosensitizer and irradiated using the conditions described in Example 3. After illumination, cells were incubated with fresh medium at 37° C. for 24 h. Control cells were incubated under the conditions as in Example 3. Cell viability was determined 24 h after irradiation using the MTT-microculture tetrazolium assay, a method that assesses dehydrogenase activity in mitochondria of live cells (Mosmann T. J. Immunol. Methods 65, 55-63, 1983), and survival fractions were calculated as 570 nm absorbance of treated cells divided by that of unirradiated controls.

Regarding histatin-5, in the data set on P. gingivalis [1], the “number of molecules that bind P. gingivalis” value is on record as “About 3,600 molecules”. The equilibrium dissociation constant (Kd) at P. gingivalis [1] (read-out: Kd of binding to P. gingivalis) was approximately 1000 nM.

Take “polylysine chlorin e6 [polylysine-chlorin e6]”: in data set [2], the “accumulation of the cationic conjugate compared to the anionic and neutral conjugates” value came out at 2 times. Moreover, the “bacteria killed / reduction in viability of P. gingivalis” value with P. gingivalis [3] was determined as 99.9%. Also, the HCPC-1 cells killed entry with HCPC-1 cells is “less than 2%”.

For “polylysine chlorin e6-succinylated [polylysine-chlorin e6-succ]”, the “bacteria killed / reduction in viability of P. gingivalis” value in the data set on P. gingivalis [3] came out at 66%.

Consider “polylysine chlorin e6 acetylated [polylysine-chlorin e6-ac]”, for which the “bacteria killed / reduction in viability of P. gingivalis” value in the data set with P. gingivalis [3] is on record as “over 90%”. Further, the “killing of HCPC-1 cells (in words)” value with HCPC-1 cells is “not HCPC-1 cells”.

“benzoporphyrin derivative [BPD, reference compound]”: the “killing of P. gingivalis (in words)” value with P. gingivalis [3] (1 min incubation, light 630-710 nm, fluences 0 to 25 J/cm^2) is on record as “not P. gingivalis”. The “killing of HCPC-1 cells (in words)” value in the data set with HCPC-1 cells is listed as “killed HCPC-1 cells”.

For orientation: Kd means the concentration at which binding is half-saturated.

The values above are taken from US7268155B2, “Photosensitizer conjugates for pathogen targeting” (The General Hospital Corporation, priority 1997, dated 2007).
